{"source": "patent US20240285627A1", "about": "“DRUG COMBINATION OF FAK INHIBITOR AND IMMUNOGENIC CELL DEATH INDUCER AND USE THEREOF” (INXMED (NANJING) CO., LTD., priority 2022, published 2024)", "format_in_all_cases": "cell-based", "key": {"[1]": {"test_system": "Mouse colon cancer CT26 cells", "experiment": "Proliferation of CT26 cells, CCK8, Lurbinectedin with or without IN10018 (Example 1)", "details": "72 hours, combination group: 6 μM IN10018 added to each well", "protocol": "Mouse colon cancer CT26 cells (Insitute of Biochemistry and Cell Biology) were cultured with RPMI-1640 (Shanghai Basalmedia, classification number: L210KJ, batch number: F210916)+10% FBS (Gibco, classification number: 10099-141c, batch number: 2158737cp) and passaged twice. When the cells were in good condition, the culture solution was placed in a 96-well plate with 3000 cells/well. After the cells were spread for 24 hours, a culture medium containing Lurbinectedin (DC chemicals, classification number: DC12502, batch number: DC1250203) was added. 10 drug action concentrations were set, wherein the first concentration was 0.1 μM, which was serially diluted 4 times, and the last concentration was a control with a drug concentration of 0. Each drug concentration was set in triplicate. At the same time, another group of cells was established with the same drug concentration as the above method. The difference was that 6 μM IN10018 was added to each well. The drugs were mixed and the mixture was cultured in a 5% CO2 incubator at 37° C. for 72 hours.\nAfter 72 hours of drug action, the cells were observed under a microscope, and 10 μl of CCK8 detection reagent (Cellorlab, classification number: CX001M, batch number: 2571100) was added to each well. […] Then the plate was read with a microplate reader OD450 ([…])."}, "[2]": {"test_system": "Mouse colon cancer CT26 cells", "experiment": "CT26 cells with IN10018 and Lurbinectedin: microscope and flow cytometry for CRT / Annexin V (Example 2)", "details": "CT26, 48 hours; IN10018 5 μM, Lurbinectedin 0.00142 μM", "protocol": "Mouse colon cancer CT26 cells (Insitute of Biochemistry and Cell Biology) were cultured with RPMI-1640 (Shanghai Basalmedia, classification number: L210KJ, batch number: F210916)+10% FBS (Gibco, classification number: 10099-141c, batch number: 2158737cp) and passaged twice. When the cells were in good condition, the culture solution was placed in a 24-well plate. After the cells were spread for 24 hours, four groups were set up, wherein the first group was a control group, and the culture medium was added; the second group was IN10018 with a concentration of 5 μM; the third group was Lurbinectedin (DC chemicals, classification number: DC12502, batch number: DC1250203) with a concentration of 0.00142 μM; and the fourth group was IN10018 (5 μM) combined with Lurbinectedin (0.00142 μM). The drugs were mixed and the mixture was cultured in a 5% CO2 incubator at 37° C. for 48 hours.\nAfter 48 hours of drug action, the cells were observed under a microscope and photographed, and the photos were kept. Then the cells were collected, subjected to flow analysis, and washed twice with flow buffer (PBS+2% FBS). 0.5 μl of AF647 anti-Calreticulin antibody (abcam, classification number: ab196159, batch number: CR33676773) was added to each well and fully mixed. […] The mixture was cultured at room temperature in the dark for 15 minutes, and then analyzed by flow cytometry."}, "[3]": {"test_system": "Mouse colon cancer CT26 cells", "experiment": "Induction of immunogenic cell death targets by Crizotinib and IN10018 in CT26 cells (Example 7)", "details": "CT26, 48 hours; IN10018 5 μM, Crizotinib 3 μM", "protocol": "CT26 cells were cultured in monolayer in vitro, and the culture conditions were: RPMI-1640 medium with 10% fetal bovine serum, 37° C. and 5% CO2. Trypsin was used for routine digestion and passage treatment two or three times a week. When the cells were in exponential growth period and the adherent confluence reached 80%-90%, the cells were collected and plated.\nCT26 cells were digested with trypsin, then collected and counted. According to the counting results, the cells were diluted with RPMI-1640+10% FBS, and the dilution concentration was 50,000 cells per ml. Then, the cells were plated on 24-well culture plates, and 1 ml of cell suspension (50,000 cells) was laid in each well. After plating, the cells were cultured in 37° C. and 5% CO2 incubator. […]\nAfter the cells were washed twice with flow buffer (DPBS+2% FBS), the cells in each group were divided into two parts on average, one of which was added with 0.5 μl of AF647 anti-Calreticulin antibody in each well, then mixed well, and incubated in the dark for 20 minutes at 4° C. […] The cells were cultured at room temperature in the dark for 15 minutes, and then analyzed by flow cytometry.\nData analysis: After the assay, the cell positive rate was analyzed by Flowjo(V10) software."}}, "data": [{"smiles": "COc1ccc2[nH]c3c(c2c1)CCN[C@]31CS[C@@H]2c3c(OC(C)=O)c(C)c4c(c3[C@H](COC1=O)N1[C@@H]2[C@H]2c3c(cc(C)c(OC)c3O)C[C@@H]([C@@H]1O)N2C)OCO4", "note": "[Lurbinectedin]", "values": [{"measurement": "IC50", "setting": "[1]", "result": 0.71, "unit": "nM"}, {"measurement": "cell state under a microscope", "setting": "[2]", "result": "poor"}]}, {"smiles": "C[C@@H](Oc1cc(-c2cnn(C3CCNCC3)c2)cnc1N)c1c(Cl)ccc(F)c1Cl", "note": "[Crizotinib]", "values": [{"measurement": "cell state under a microscope (cell death; cell viability)", "setting": "[3]", "result": "cell death was obvious"}]}]}
